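How tested: cells in 96-well plates exposed to compound for 48 hours at five concentrations. Here, GI50 denotes the concentration required for 50% inhibition of growth.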 Calls of active or inactive are those of the source. Cut-off read from the data, not from the text of the source: active = GI50 up to about 1.1 µM and inactive = higher. Non-standard residues stand in square brackets, D forms with d. Residues, ends and D or L forms follow the SMILES beside them. ξ: configuration not given here. *: point of attachment. Cbz = O=C(OCc1ccccc1)*; ξK = NCCCCC(N)C(=O)O
Assays:
Assay in all cases: NCI anticancer screen, dose series, 48 h
LOX IMVI = system: LOX IMVI
Malme-3M = system: Malme-3M
HT-29 = system: HT-29
NCI-H522 = system: NCI-H522
RXF 393 = system: RXF 393
CCRF-CEM = system: CCRF-CEM
K562 = system: K562
OVCAR-3 = system: OVCAR-3
SW-620 = system: SW-620
HCC 2998 = system: HCC 2998
SF-539 = system: SF-539
NCI-H460 = system: NCI-H460
OVCAR-4 = system: OVCAR-4
HOP-92 = system: HOP-92
A549 = system: A549
UO-31 = system: UO-31
NCI/ADR-RES = system: NCI/ADR-RES
M14 = system: M14
SF-268 = system: SF-268
HOP-62 = system: HOP-62

| SMILES | GI50 (LOX IMVI) | GI50 (Malme-3M) | GI50 (HT-29) | GI50 (NCI-H522) | GI50 (RXF 393) | GI50 (CCRF-CEM) | GI50 (K562) | GI50 (OVCAR-3) | GI50 (SW-620) | GI50 (HCC 2998) | GI50 (SF-539) | GI50 (NCI-H460) | GI50 (OVCAR-4) | GI50 (HOP-92) | GI50 (A549) | GI50 (UO-31) | GI50 (NCI/ADR-RES) | GI50 (M14) | GI50 (SF-268) | GI50 (HOP-62) |
| --- | --- | --- | --- | --- | --- | --- | --- | --- | --- | --- | --- | --- | --- | --- | --- | --- | --- | --- | --- | --- |
| C=CCN(c1cc(O)c2c(c(C)cn2S(=O)(=O)c2ccccc2)c1[N+](=O)[O-])S(C)(=O)=O | 69.2 µM (inactive) | > 100 µM (inactive) | > 100 µM (inactive) | 65.9 µM (inactive) | 56 µM (inactive) | > 100 µM (inactive) | 38.5 µM (inactive) | 65.5 µM (inactive) | > 100 µM (inactive) | > 100 µM (inactive) | > 100 µM (inactive) | 63.8 µM (inactive) | > 100 µM (inactive) | > 100 µM (inactive) | 56.5 µM (inactive) | > 100 µM (inactive) | > 100 µM (inactive) | > 100 µM (inactive) | > 100 µM (inactive) | > 100 µM (inactive) |
| CSc1s[s+]c(SC)c1-c1ccccc1 | 25.9 µM (inactive) | 11.3 µM (inactive) | 17.5 µM (inactive) | 11.7 µM (inactive) | 16.3 µM (inactive) | 25.2 µM (inactive) | 20.2 µM (inactive) | 15 µM (inactive) | 16.4 µM (inactive) | 5.62 µM (inactive) | 18.2 µM (inactive) | 29.7 µM (inactive) | 0.329 µM (active) | 13.2 µM (inactive) | 28.1 µM (inactive) | 18.4 µM (inactive) | 18.7 µM (inactive) | 16.5 µM (inactive) | 18.2 µM (inactive) | 14.6 µM (inactive) |
| Cc1nc2c(O)cccc2c(=O)[nH]1 | 485 µM (inactive) | 597 µM (inactive) | 345 µM (inactive) | 356 µM (inactive) | 158 µM (inactive) | 305 µM (inactive) | 359 µM (inactive) | 542 µM (inactive) | > 1000 µM (inactive) | 418 µM (inactive) | 355 µM (inactive) | 263 µM (inactive) | 399 µM (inactive) | 845 µM (inactive) | 360 µM (inactive) | 282 µM (inactive) | 548 µM (inactive) | 611 µM (inactive) | 467 µM (inactive) | 437 µM (inactive) |
| Cc1ccc(-c2nc(N/N=C/C=C/c3ccccc3)c3ccccc3n2)cc1 | 48.6 µM (inactive) | 30 µM (inactive) | 32.8 µM (inactive) | 21.3 µM (inactive) | 26.2 µM (inactive) | > 100 µM (inactive) | > 100 µM (inactive) | 31.6 µM (inactive) | 29.1 µM (inactive) | 28.4 µM (inactive) | 55.5 µM (inactive) | 28.6 µM (inactive) | 50.5 µM (inactive) | 31.3 µM (inactive) | 34.4 µM (inactive) | 83.6 µM (inactive) | 72.9 µM (inactive) | 29.4 µM (inactive) | 33.5 µM (inactive) | 64.4 µM (inactive) |
| Nc1cc2c3c(cccc3c1)NC2=O | 51.4 µM (inactive) | > 100 µM (inactive) | > 100 µM (inactive) | 3.64 µM (inactive) | > 100 µM (inactive) | 8.05 µM (inactive) | > 100 µM (inactive) | > 100 µM (inactive) | 82.4 µM (inactive) | > 100 µM (inactive) | 80.7 µM (inactive) | 8.39 µM (inactive) | > 100 µM (inactive) | > 100 µM (inactive) | 69.2 µM (inactive) | 21.2 µM (inactive) | > 100 µM (inactive) | 34.6 µM (inactive) | 11.2 µM (inactive) | 22.1 µM (inactive) |
| CC(C)[C@@H]1CC[C@@H](C)C[C@H]1OC(=O)/C=C1/C2C=CC(O2)C1C(=O)O[C@@H]1C[C@H](C)CC[C@H]1C(C)C (stereo not given in full) | > 100 µM (inactive) | > 100 µM (inactive) | 48.5 µM (inactive) | 41.8 µM (inactive) | > 100 µM (inactive) | 45.5 µM (inactive) | 51.4 µM (inactive) | > 100 µM (inactive) | > 100 µM (inactive) | 13.5 µM (inactive) | > 100 µM (inactive) | 89.1 µM (inactive) | > 100 µM (inactive) | > 100 µM (inactive) | > 100 µM (inactive) | > 100 µM (inactive) | > 100 µM (inactive) | > 100 µM (inactive) | > 100 µM (inactive) | > 100 µM (inactive) |
| NCCCCC(NC(=O)OCc1ccccc1)C(=O)NCC(N)=O (stereo not given) (Cbz-[ξK]-Gly-NH2) | > 100 µM (inactive) | > 100 µM (inactive) | > 100 µM (inactive) | > 100 µM (inactive) | > 100 µM (inactive) | > 100 µM (inactive) | > 100 µM (inactive) | > 100 µM (inactive) | > 100 µM (inactive) | > 100 µM (inactive) | > 100 µM (inactive) | > 100 µM (inactive) | > 100 µM (inactive) | > 100 µM (inactive) | > 100 µM (inactive) | > 100 µM (inactive) | > 100 µM (inactive) | > 100 µM (inactive) | > 100 µM (inactive) | > 100 µM (inactive) |
| CCOC1OC(C)(C=C(C#N)C#N)CCC1C (stereo not given) | 22.8 µM (inactive) | 43.3 µM (inactive) | 27.6 µM (inactive) | 15.4 µM (inactive) | 53.6 µM (inactive) | 30.3 µM (inactive) | 16.8 µM (inactive) | 24.5 µM (inactive) | 37.2 µM (inactive) | 32.1 µM (inactive) | 23.8 µM (inactive) | 34.2 µM (inactive) | 49.3 µM (inactive) | 48.5 µM (inactive) | 45.5 µM (inactive) | 33.8 µM (inactive) | 35.2 µM (inactive) | 35.5 µM (inactive) | 43.2 µM (inactive) | 22.9 µM (inactive) |
| CCOC(=O)c1nc2c3c(ncn2n1)Oc1c(c(-c2ccccc2)nn1-c1ccccc1)C3c1ccc(Cl)cc1 (stereo not given) | > 100 µM (inactive) | > 100 µM (inactive) | > 100 µM (inactive) | > 100 µM (inactive) | > 100 µM (inactive) | > 100 µM (inactive) | > 100 µM (inactive) | > 100 µM (inactive) | > 100 µM (inactive) | > 100 µM (inactive) | > 100 µM (inactive) | > 100 µM (inactive) | > 100 µM (inactive) | > 100 µM (inactive) | > 100 µM (inactive) | > 100 µM (inactive) | > 100 µM (inactive) | > 100 µM (inactive) | > 100 µM (inactive) | > 100 µM (inactive) |
